Structures can show the parent of a compound that is named as a salt.
Columns and labels:
[1] = test system: HCT-116 cell line; assay: Inhibition of cell growth, MTT tetrazolium salt assay; type: cell-based; details: for IC50: Homo sapiens, HCT-116, 120 h, MTT, three to five days
How it was run: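 Cells in McCoy's 5A medium were given 4 h before compound addition in 0.5% (v/v) DMSO, then incubated 3–5 days at 37 °C, 5% CO2. After 4 h with 0.2 mg/mL MTT, DMSO-solubilized formazan was read at 540 nm; 50% and 90% growth-inhibitory concentrations came from semi-log plots against vehicle controls.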

[2] = target: T1, CDK2/cyclin A (Homo sapiens, UniProt P24941); assay: Inhibition of CDK2/cyclin A retinoblastoma kinase activity (Ki; % inhibition); type: biochemical; details: for Ki: apparent Ki, CDK2/cyclin A, Rb substrate
T1 construct: made in house; host or cells: CDK2: insect cells (baculovirus); cyclin A: E. coli
How it was run: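 Radiometric filter assay of CDK2/proteolyzed cyclin A (baculovirus-expressed human CDK2, 10 or 19 nM) phosphorylating an Rb fragment with 25 μM [³²P/³³P]ATP in pH 7.4 HEPES, 2% DMSO, at 30 °C for 60 or 75 min under initial-rate conditions. Library compounds screened at 30 nM for % inhibition; apparent Ki from concentration series fit to competitive or tight-binding inhibition equations.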

[3] = target: T2, human CDK4/cyclin D3 (Homo sapiens, UniProt P11802); assay: Inhibition of CDK4/cyclin D retinoblastoma kinase activity (Ki; % inhibition); type: biochemical; details: for Ki: apparent Ki, CDK4/cyclin D3, Rb substrate
T2 construct: made in house; host or cells: insect cells co-infected with baculovirus vectors
How it was run: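 Insect-cell-expressed CDK4 with truncated cyclin D3 (1-264), 5 nM, phosphorylating His-tagged Rb fragment (386-928) with 25 μM [32/33P]ATP at pH 7.4, 30 °C, 20 min (60 min for tight binders). Filter capture, phosphorimager read; % inhibition at 30 nM compound, Ki from competitive or tight-binding fits.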

[4] = HCT-116 cells, 0.25 μM compound

T2 sequence (P11802 whole entry): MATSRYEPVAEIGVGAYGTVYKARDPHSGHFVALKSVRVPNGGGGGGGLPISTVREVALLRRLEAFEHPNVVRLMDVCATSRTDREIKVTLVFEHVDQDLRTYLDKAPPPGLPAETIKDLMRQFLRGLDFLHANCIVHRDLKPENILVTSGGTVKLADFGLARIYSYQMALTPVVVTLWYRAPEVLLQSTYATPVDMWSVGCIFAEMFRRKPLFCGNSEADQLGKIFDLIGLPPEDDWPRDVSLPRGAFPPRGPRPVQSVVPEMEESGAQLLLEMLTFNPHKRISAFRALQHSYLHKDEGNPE
T2 sequence (P30281 1-264 partner limits assumed): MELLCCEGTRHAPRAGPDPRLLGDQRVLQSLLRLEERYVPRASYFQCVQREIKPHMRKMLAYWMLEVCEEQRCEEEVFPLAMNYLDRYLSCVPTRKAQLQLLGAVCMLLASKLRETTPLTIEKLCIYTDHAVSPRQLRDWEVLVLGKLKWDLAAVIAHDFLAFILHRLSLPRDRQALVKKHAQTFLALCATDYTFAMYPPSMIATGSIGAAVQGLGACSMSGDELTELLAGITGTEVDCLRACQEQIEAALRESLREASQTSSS

Row | Compound | CDK2 % Inhibition at 0.03 μM ([2]; at 0.03 μM) [%] | CDK4 % Inhibition at 0.03 μM ([3]; at 0.03 μM) [%] | CDK2 % Inhibition at 0.03 μM ([2]; 0.03 μM compound) [%] | CDK4 % Inhibition at 0.03 μM ([3]; 0.03 μM compound) [%] | HCT-116 % Inhibition at 0.25 μM ([1]; HCT-116, at 0.25 μM) [%] | HCT-116 % Inhibition at 0.1 μM ([1]; HCT-116 cells, 0.1 μM compound) [%] | HCT-116 % Inhibition at 0.25 μM [1, 4] [%] | other results
1 | CN(C)CCNC(=O)c1ccc(Nc2nc(N)c(C(=O)c3c(F)cccc3F)s2)cc1 [Example A4] |  |  |  |  |  |  |  | IC50 [1]: 190 nM; Ki [2]: 230 nM; Ki [3]: 16 nM
2 | C[C@@H]1CN(CCNC(=O)c2ccc(Nc3nc(N)c(C(=O)c4c(F)cccc4F)s3)cc2)C[C@H](C)N1 [Example A57] |  |  |  |  |  |  |  | IC50 [1]: 3800 nM; Ki [2]: 54 nM; Ki [3]: 10 nM
3 | Nc1nc(Nc2ccc(C(=O)NCCCCCCO)cc2)sc1C(=O)c1c(F)cccc1F [Example G358] |  |  | −5 | 7 |  | 21 | 55 | 
4 | Cc1cccc(CNC(=O)c2ccc(Nc3nc(N)c(C(=O)c4c(F)cccc4F)s3)cc2)c1 [Example G360] |  |  | 31 | 9 |  | 18 | 73 | 
5 | Nc1nc(Nc2ccc(C(=O)Nc3ccon3)cc2)sc1C(=O)c1c(F)cccc1F [Example G213] |  |  | −1 | 9 |  | 16 | 49 | 
6 | Nc1nc(Nc2ccc(C(=O)Nc3ccc(-c4csnn4)cc3)cc2)sc1C(=O)c1c(F)cccc1F [Example G30] | 5 | 5 |  |  | 82 |  |  | 
7 | Nc1nc(Nc2ccc(C(=O)Nc3ccc(Nc4ccccc4)cc3)cc2)sc1C(=O)c1c(F)cccc1F [Example G305] |  |  | −6 | 11 |  | 29 | 81 | 
8 | Nc1nc(Nc2ccc(C(=O)NCCc3ccccc3F)cc2)sc1C(=O)c1c(F)cccc1F [Example G206] |  |  | 13 | 19 |  | 13 | 58 | 
9 | Cc1cc(NC(=O)c2ccc(Nc3nc(N)c(C(=O)c4c(F)cccc4F)s3)cc2)ccc1Cl [Example G38] | 3 | 7 |  |  | 65 |  |  | 
10 | CC(C)c1ccc(NC(=O)c2ccc(Nc3nc(N)c(C(=O)c4c(F)cccc4F)s3)cc2)cc1 [Example G69] | 7 | 3 |  |  | 70 |  |  | 
11 | Nc1nc(Nc2ccc(C(=O)N3CCN(Cc4ccc5c(c4)OCO5)CC3)cc2)sc1C(=O)c1c(F)cccc1F [Example G62] | 7 | 22 |  |  | 50 |  |  | 
12 | CN(CCc1ccncc1)C(=O)c1ccc(Nc2nc(N)c(C(=O)c3c(F)cccc3F)s2)cc1 [Example G58] | 19 | 17 |  |  | 53 |  |  | 
13 | Nc1nc(Nc2ccc(C(=O)NCc3ccccc3Cl)cc2)sc1C(=O)c1c(F)cccc1F [Example G228] |  |  | 38 | 36 |  | 24 | 75 | 
14 | Nc1nc(Nc2ccc(C(=O)NCCN3CCCC3)cc2)sc1C(=O)c1c(F)cccc1F [Example A35, 4-[4-Amino-5-(2,6-difluoro-benzoyl)-thiazol-2-ylamino]-N-(2-pyrrolidin-1-yl-ethyl)-benzamide] |  |  |  |  |  |  |  | IC50 [1]: 120 nM; Ki [2]: 54 nM; Ki [3]: 6 nM
15 | CN1CCC[C@H]1CNC(=O)c1ccc(Nc2nc(N)c(C(=O)c3ccccc3S(C)(=O)=O)s2)cc1 [Example A73, 4-{4-Amino-5-(2-methanesulfonyl-benzoyl)-thiazol-2-ylamino}-N-(1-methyl-pyrrolidin-2S-ylmethyl)-benzamide Trifluoroacetic Acid Salt] |  |  |  |  |  |  |  | IC50 [1]: > 5000 nM; Ki [2]: 1200 nM; Ki [3]: 36000 nM
16 | NC(=O)C(CO)NC(=O)c1ccc(Nc2nc(N)c(C(=O)c3c(F)cccc3F)s2)cc1 (stereo not shown) [Example G198] |  |  | 19 | 42 |  | 9 | 44 | 
17 | Nc1nc(Nc2ccc(C(=O)NCc3ccc(F)cc3Cl)cc2)sc1C(=O)c1c(F)cccc1F [Example G278] |  |  | 25 | 27 |  | 6 | 76 | 
18 | Cc1cc(F)c(C(=O)c2sc(Nc3ccc(C(=O)NC[C@@H]4CCCN4C)cc3)nc2N)c(F)c1 [Example A68, 4-{4-Amino-5-(2,6-difluoro-4-methyl-benzoyl)-thiazol-2-ylamino}-N-(1-methyl-pyrrolidin-2S-ylmethyl)-benzamide] |  |  |  |  |  |  |  | IC50 [1]: 75 nM; Ki [2]: 8.5 nM; Ki [3]: 45 nM
19 | CCOC(=O)c1ccc(NC(=O)c2ccc(Nc3nc(N)c(C(=O)c4c(F)cccc4F)s3)cc2)cc1 [Example G190] | 5 | 4 |  |  | 55 |  |  | HCT-116 % Inhibition at 0.1 μM ([1]; HCT-116, at 0.1 μM): 9%
20 | Nc1nc(Nc2ccc(C(=O)NCc3ccc(F)c(F)c3)cc2)sc1C(=O)c1c(F)cccc1F [Example G317] |  |  | 27 | 33 |  | 27 | 87 | 
21 | Cc1cc(NC(=O)c2ccc(Nc3nc(N)c(C(=O)c4c(F)cccc4F)s3)cc2)ccc1C(C)C [Example G107] | −5 | 12 |  |  | 59 |  |  | HCT-116 % Inhibition at 0.1 μM ([1]; HCT-116, at 0.1 μM): 5%
22 | Nc1nc(Nc2ccc(C(=O)NC3CCN(Cc4ccccc4)CC3)cc2)sc1C(=O)c1c(F)cccc1F [Example G178] | 20 | 54 |  |  | 83 |  |  | HCT-116 % Inhibition at 0.1 μM ([1]; HCT-116, at 0.1 μM): 43%
23 | CCN(CC)CCCC(C)NC(=O)c1ccc(Nc2nc(N)c(C(=O)c3c(F)cccc3F)s2)cc1 (stereo not shown) [Example G239] |  |  | 15 | 27 |  | 21 | 50 | 
24 | Nc1nc(Nc2ccc(C(=O)Nc3cccc(Br)c3)cc2)sc1C(=O)c1c(F)cccc1F [Example G287] |  |  | −8 | 7 |  | 9 | 32 | 
25 | Nc1ccc(CCNC(=O)c2ccc(Nc3nc(N)c(C(=O)c4c(F)cccc4F)s3)cc2)cc1 [Example G105] | 3 | 9 |  |  | 67 |  |  | HCT-116 % Inhibition at 0.1 μM ([1]; HCT-116, at 0.1 μM): 24%

Further lines, with some results ahead:

Row | CDK2 % Inhibition at 0.03 μM ([2]; at 0.03 μM) [%] | CDK4 % Inhibition at 0.03 μM ([3]; at 0.03 μM) [%] | CDK2 % Inhibition at 0.03 μM ([2]; 0.03 μM compound) [%] | CDK4 % Inhibition at 0.03 μM ([3]; 0.03 μM compound) [%] | Compound | HCT-116 % Inhibition at 0.25 μM ([1]; HCT-116, at 0.25 μM) [%] | HCT-116 % Inhibition at 0.1 μM ([1]; HCT-116 cells, 0.1 μM compound) [%] | HCT-116 % Inhibition at 0.25 μM [1, 4] [%] | other results
26 | −24 | 11 |  |  | COCCCNC(=O)c1ccc(Nc2nc(N)c(C(=O)c3c(F)cccc3F)s2)cc1 [Example G98] | 60 |  |  | HCT-116 % Inhibition at 0.1 μM ([1]; HCT-116, at 0.1 μM): 22%
27 |  |  | 2 | 21 | CC(C)NC(=O)CN1CCN(C(=O)c2ccc(Nc3nc(N)c(C(=O)c4c(F)cccc4F)s3)cc2)CC1 [Example G335] |  | 3 | 42 | 
28 |  |  | −2 | 17 | Nc1nc(Nc2ccc(C(=O)NCC(O)CO)cc2)sc1C(=O)c1c(F)cccc1F (stereo not shown) [Example G279] |  | 2 | 52 | 
29 | 9 | 10 |  |  | COC(=O)CN(C)C(=O)c1ccc(Nc2nc(N)c(C(=O)c3c(F)cccc3F)s2)cc1 [Example G50] | 61 |  |  | 
30 |  |  | −16 | −5 | CC(C)C[C@@H](CO)NC(=O)c1ccc(Nc2nc(N)c(C(=O)c3c(F)cccc3F)s2)cc1 [Example G333] |  | 4 | 51 | 
31 | 2 | 25 |  |  | CC(C)OCCCNC(=O)c1ccc(Nc2nc(N)c(C(=O)c3c(F)cccc3F)s2)cc1 [Example G135] | 56 |  |  | HCT-116 % Inhibition at 0.1 μM ([1]; HCT-116, at 0.1 μM): 0%
32 |  |  | −7 | 10 | CC(=O)N[C@@H]1CCN(C(=O)c2ccc(Nc3nc(N)c(C(=O)c4c(F)cccc4F)s3)cc2)C1 [Example G373] |  | 31 | 48 | 
33 | 10 | 34 |  |  | CCN1CCCC1CNC(=O)c1ccc(Nc2nc(N)c(C(=O)c3c(F)cccc3F)s2)cc1 (stereo not shown) [Example G154] | 91 |  |  | HCT-116 % Inhibition at 0.1 μM ([1]; HCT-116, at 0.1 μM): 17%
34 | 7 | 4 |  |  | Nc1nc(Nc2ccc(C(=O)N3CCCC(O)C3)cc2)sc1C(=O)c1c(F)cccc1F (stereo not shown) [Example G49] | 57 |  |  | 
35 | 4 | 32 |  |  | CN(C)C1CCN(C(=O)c2ccc(Nc3nc(N)c(C(=O)c4c(F)cccc4F)s3)cc2)C1 (stereo not shown) [Example G29] |  |  |  | HCT-116 % Inhibition at 0.25 μM ([1]; HCT-116, at 0.25 μM, 0.25 µM): 55%

Reference: patent US6720346B2, “Thiazole benzamide derivatives and pharmaceutical compositions for inhibiting cell proliferation” (Agouron Pharmaceuticals, Inc., priority 2001, dated 2004)
